# Source: patent US20130252930A1 (BIOMARIN PHARMACEUTICAL INC., priority 2010, published 2013)
# Like-named read-outs stand apart in the source and are kept apart here.
# Target: T1, CYP17 (human testicular microsome) (Homo sapiens, UniProt P05093)
# T1 construct: using microsomal fraction from human testis (Celsis Cat #S00110) as the enzyme source; tissue Celsis S00110; host or cells: human testis microsomal fraction
# T1 sequence (P05093 1-508): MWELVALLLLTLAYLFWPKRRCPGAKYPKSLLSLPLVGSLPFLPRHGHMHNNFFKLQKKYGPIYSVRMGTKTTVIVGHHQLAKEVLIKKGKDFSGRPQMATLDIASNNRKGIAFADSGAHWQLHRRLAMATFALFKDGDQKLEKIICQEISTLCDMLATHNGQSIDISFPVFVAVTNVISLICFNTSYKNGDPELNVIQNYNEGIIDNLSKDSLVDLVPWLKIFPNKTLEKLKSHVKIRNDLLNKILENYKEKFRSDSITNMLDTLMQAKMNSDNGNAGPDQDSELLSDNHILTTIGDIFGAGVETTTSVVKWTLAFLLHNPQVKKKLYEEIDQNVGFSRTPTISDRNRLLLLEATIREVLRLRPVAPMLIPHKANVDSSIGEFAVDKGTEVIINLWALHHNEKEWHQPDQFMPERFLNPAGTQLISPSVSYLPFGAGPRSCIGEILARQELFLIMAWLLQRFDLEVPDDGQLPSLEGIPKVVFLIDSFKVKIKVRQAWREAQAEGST
# Test: CYP17 enzymatic assay (% inhibition at 1 nM) (Biological Example 12)
# Assay type: biochemical
# [1] = compound at 1 nM, read-out: CYP17 enzymatic assay % inhibition at 1 nM (Biological Example No. 12)
# [2] = test compound at 1 nM, read-out: CYP17 enzymatic assay percent inhibition at 1 nM (Biological Example No. 12)
# [3] = compound at 1 nM, read-out: Biological Example No. 12: CYP17 enzymatic assay % inhibition at 1 nM
smiles,measurement,setting,value
"CNC1C[C@H]2[C@@H]3CC=C(n4ccnc4)[C@@]3(C)CC[C@@H]2[C@@]2(C)CCC3CC312 (mixture of isomers) [Compound 248, (3aR,5aS)-6-(1H-imidazol-1-yl)-N,3a,5a-trimethyl-1,1a,2,3,3a,3b,4,5,5a,8,8a,8b,9,10-tetradecahydrocyclopenta[a]cyclopropa[2,3]cyclopenta[1,2-f]naphthalen-10-amine]",inhibition at 0.001 µM,[1],< 10%
"CC(C)C(=O)O[C@H]1CC[C@@]2(C)C(=CCC3C4=CC=C(c5cccnc5)[C@@]4(C)CCC32)C1 (stereo partly drawn) [Compound 191, (3S,10R,13S)-10,13-dimethyl-17-(pyridin-3-yl)-2,3,4,7,8,9,10,11,12,13-decahydro-1H-cyclopenta[a]phenanthren-3-yl isobutyrate]",inhibition at 0.001 µM,[1],10 to 50%
"CC(C)(C)C(=O)O[C@H]1CC[C@@]2(C)C(=CCC3C4=CC=C(c5cccnc5)[C@@]4(C)CCC32)C1 (stereo partly drawn) [Compound 192, (3S,10R,13S)-10,13-dimethyl-17-(pyridin-3-yl)-2,3,4,7,8,9,10,11,12,13-decahydro-1H-cyclopenta[a]phenanthren-3-yl pivalate]",inhibition at 0.001 µM,[1],10 to 50%
"CCC(=O)O[C@H]1CC[C@@]2(C)C(=CCC3C4=CC=C(c5cccnc5)[C@@]4(C)CCC32)C1 (stereo partly drawn) [Compound 193, (3S,10R,13S)-10,13-dimethyl-17-(pyridin-3-yl)-2,3,4,7,8,9,10,11,12,13-decahydro-1H-cyclopenta[a]phenanthren-3-yl propionate]",inhibition at 0.001 µM,[2],10 to 50%
"C[C@]12CCC3C(CC=C4C[C@@H](OC(=O)c5ccccc5)CC[C@@]43C)C1=CC=C2c1cccnc1 (stereo partly drawn) [Compound 194, (3S,10R,13S)-10,13-dimethyl-17-(pyridin-3-yl)-2,3,4,7,8,9,10,11,12,13-decahydro-1H-cyclopenta[a]phenanthren-3-yl benzoate]",inhibition at 0.001 µM,[2],10 to 50%
"Cc1ccccc1C(=O)O[C@H]1CC[C@@]2(C)C(=CCC3C4=CC=C(c5cccnc5)[C@@]4(C)CCC32)C1 (stereo partly drawn) [Compound 195, (3S,10R,13S)-10,13-dimethyl-17-(pyridin-3-yl)-2,3,4,7,8,9,10,11,12,13-decahydro-1H-cyclopenta[a]phenanthren-3-yl 2-methylbenzoate]",inhibition at 0.001 µM,[1],10 to 50%
"CC(C)(C)c1ccccc1C(=O)O[C@H]1CC[C@@]2(C)C(=CC[C@H]3C4=CC=C(c5cccnc5)[C@@]4(C)CC[C@@H]32)C1 [Compound 201, (3S,10R,13S)-10,13-dimethyl-17-(pyridin-3-yl)-2,3,4,7,8,9,10,11,12,13-decahydro-1H-cyclopenta[a]phenanthren-3-yl 2-(tert-butyl)benzoate]",inhibition at 0.001 µM,[1],< 10%
"CCNC(=O)O[C@H]1CC[C@@]2(C)C(=CC[C@H]3C4=CC=C(c5cccnc5)[C@@]4(C)CC[C@@H]32)C1 [Compound 202, (3S,10R,13S)-10,13-dimethyl-17-(pyridin-3-yl)-2,3,4,7,8,9,10,11,12,13-decahydro-1H-cyclopenta[a]phenanthren-3-yl ethylcarbamate]",inhibition at 0.001 µM,[1],< 10%
"CC(C)(C)NC(=O)O[C@H]1CC[C@@]2(C)C(=CC[C@H]3C4=CC=C(c5cccnc5)[C@@]4(C)CC[C@@H]32)C1 [Compound 203, (3S,10R,13S)-10,13-dimethyl-17-(pyridin-3-yl)-2,3,4,7,8,9,10,11,12,13-decahydro-1H-cyclopenta[a]phenanthren-3-yl tert-butylcarbamate]",inhibition at 0.001 µM,[1],10 to 50%
"C[C@]12CC[C@H]3[C@@H](CC=C4C[C@@H](OC(=O)Nc5cccnc5)CC[C@@]43C)C1=CC=C2c1cccnc1 [Compound 204, (3S,10R,13S)-10,13-dimethyl-17-(pyridin-3-yl)-2,3,4,7,8,9,10,11,12,13-decahydro-1H-cyclopenta[a]phenanthren-3-yl pyridin-3-ylcarbamate]",inhibition at 0.001 µM,[3],10 to 50%
"Cc1ccncc1C(=O)O[C@H]1CC[C@@]2(C)C(=CC[C@H]3C4=CC=C(c5cccnc5)[C@@]4(C)CC[C@@H]32)C1 [Compound 205, (3S,10R,13S)-10,13-dimethyl-17-(pyridin-3-yl)-2,3,4,7,8,9,10,11,12,13-decahydro-1H-cyclopenta[a]phenanthren-3-yl 4-methylnicotinate]",inhibition at 0.001 µM,[3],10 to 50%
"CC(CO)(CO)C(=O)O[C@H]1CC[C@@]2(C)C(=CC[C@H]3C4=CC=C(c5cccnc5)[C@@]4(C)CC[C@@H]32)C1 [Compound 206, (3S,10R,13S)-10,13-dimethyl-17-(pyridin-3-yl)-2,3,4,7,8,9,10,11,12,13-decahydro-1H-cyclopenta[a]phenanthren-3-yl 3-hydroxy-2-(hydroxymethyl)-2-methylpropanoate]",inhibition at 0.001 µM,[3],< 10%
"CN1CCC(C(=O)O[C@H]2CC[C@@]3(C)C(=CC[C@H]4C5=CC=C(c6cccnc6)[C@@]5(C)CC[C@@H]43)C2)CC1 [Compound 207, (3S,10R,13S)-10,13-dimethyl-17-(pyridin-3-yl)-2,3,4,7,8,9,10,11,12,13-decahydro-1H-cyclopenta[a]phenanthren-3-yl 1-methylpiperidine-4-carboxylate]",inhibition at 0.001 µM,[3],10 to 50%
"CNC1CC[C@@]2(C)C(CCC3C2CC[C@]2(C)C(c4cncc(C)c4)=CCC32)C1 (stereo partly drawn) [Compound 210, (10S,13S)-N,10,13-trimethyl-17-(5-methylpyridin-3-yl)-2,3,4,5,6,7,8,9,10,11,12,13,14,15-tetradecahydro-1H-cyclopenta[a]phenanthren-3-amine]",inhibition at 0.001 µM,[1],10 to 50%
"CNC1CC[C@@]2(C)C(CC[C@@H]3[C@@H]2CC[C@]2(C)C(c4cccnc4)=CC[C@@H]32)C1 (stereo partly drawn) [Compound 211, (10S,13S)-N,10,13-trimethyl-17-(pyridin-3-yl)-2,3,4,5,6,7,8,9,10,11,12,13,14,15-tetradecahydro-1H-cyclopenta[a]phenanthren-3-amine]",inhibition at 0.001 µM,[1],10 to 50%
"CC(=O)N(C)C1CC[C@@]2(C)C(CCC3C2CC[C@]2(C)C(c4cncc(C)c4)=CCC32)C1 (stereo partly drawn) [Compound 212, N-((10S,13S)-10,13-dimethyl-17-(5-methylpyridin-3-yl)-2,3,4,5,6,7,8,9,10,11,12,13,14,15-tetradecahydro-1H-cyclopenta[a]phenanthren-3-yl)-N-methylacetamide]",inhibition at 0.001 µM,[1],10 to 50%
"CC(=O)N(C)C1CC[C@@]2(C)C(CCC3C2CC[C@]2(C)C(c4cccnc4)=CCC32)C1 (stereo partly drawn) [Compound 213, N-((10S,13S)-10,13-dimethyl-17-(pyridin-3-yl)-2,3,4,5,6,7,8,9,10,11,12,13,14,15-tetradecahydro-1H-cyclopenta[a]phenanthren-3-yl)-N-methylacetamide]",inhibition at 0.001 µM,[1],10 to 50%
"C[C@]12CC[C@@H](N)CC1CC[C@@H]1[C@@H]2CC[C@]2(C)C(c3cccnc3)=CC[C@@H]12 (stereo partly drawn) [Compound 214, (3R,10S,13S)-10,13-dimethyl-17-(pyridin-3-yl)-2,3,4,5,6,7,8,9,10,11,12,13,14,15-tetradecahydro-1H-cyclopenta[a]phenanthren-3-amine]",inhibition at 0.001 µM,[1],10 to 50%
"C[C@]12CC[C@@H](N=[N+]=[N-])CC1CC[C@@H]1[C@@H]2CC[C@]2(C)C(c3cccnc3)=CC[C@@H]12 (stereo partly drawn) [Compound 214b, 3-((3R,10S,13S)-3-azido-10,13-dimethyl-2,3,4,5,6,7,8,9,10,11,12,13,14,15-tetradecahydro-1H-cyclopenta[a]phenanthren-17-yl)pyridine]",inhibition at 0.001 µM,[1],10 to 50%
"C[C@]12CC[C@@H](NC(=O)C(F)(F)F)CC1CCC1C2CC[C@]2(C)C(c3cccnc3)=CCC12 (stereo partly drawn) [Compound 217, N-((3R,10S,13S)-10,13-dimethyl-17-(pyridin-3-yl)-2,3,4,5,6,7,8,9,10,11,12,13,14,15-tetradecahydro-1H-cyclopenta[a]phenanthren-3-yl)-2,2,2-trifluoroacetamide]",inhibition at 0.001 µM,[1],10 to 50%
"CC(C)(C)C(=O)N[C@@H]1CC[C@@]2(C)C(CCC3C2CC[C@]2(C)C(c4cccnc4)=CCC32)C1 (stereo partly drawn) [Compound 218, N-((3R,10S,13S)-10,13-dimethyl-17-(pyridin-3-yl)-2,3,4,5,6,7,8,9,10,11,12,13,14,15-tetradecahydro-1H-cyclopenta[a]phenanthren-3-yl)pivalamide]",inhibition at 0.001 µM,[2],10 to 50%
"C[C@]12CC[C@@H](NS(C)(=O)=O)CC1=CCC1C2CC[C@]2(C)C(c3cccnc3)=CCC12 (stereo partly drawn) [Compound 225, N-((3R,10R,13S)-10,13-dimethyl-17-(pyridin-3-yl)-2,3,4,7,8,9,10,11,12,13,14,15-dodecahydro-1H-cyclopenta[a]phenanthren-3-yl)methanesulfonamide]",inhibition at 0.001 µM,[1],10 to 50%
"C[C@]12CC[C@@H](NC(=O)c3nccs3)CC1=CC[C@@H]1[C@@H]2CC[C@]2(C)C(c3cccnc3)=CC[C@@H]12 [Compound 229, N-((3R,10R,13S)-10,13-dimethyl-17-(pyridin-3-yl)-2,3,4,7,8,9,10,11,12,13,14,15-dodecahydro-1H-cyclopenta[a]phenanthren-3-yl)thiazole-2-carboxamide]",inhibition at 0.001 µM,[1],10 to 50%
"CCNC(=S)N[C@@H]1CC[C@@]2(C)C(=CC[C@@H]3[C@@H]2CC[C@]2(C)C(c4cccnc4)=CC[C@@H]32)C1 [Compound 233, 1-((3R,10R,13S)-10,13-dimethyl-17-(pyridin-3-yl)-2,3,4,7,8,9,10,11,12,13,14,15-dodecahydro-1H-cyclopenta[a]phenanthren-3-yl)-3-ethylthiourea]",inhibition at 0.001 µM,[1],10 to 50%
